Experimental data: US6037361A, “Fluorinated butyric acids and their derivatives as inhibitors of matrix metalloproteinases” (Warner-Lambert Company, priority 1998, dated 2000)

Assays:
[1] = test system: bovine nasal and pig articular cartilage; settings: bovine nasal and pig articular cartilage models for arthritis; cited from earlier work
[2] = test system: human ovarian carcinoma xenografts; settings: mice bearing human ovarian carcinoma xenografts; cited from earlier work
[3] = biological target: T1, SCD (stromelysin-1 catalytic domain) (Homo sapiens, UniProt P08254); assay: IC50 versus SCD with thiopeptolide substrate Ac-Pro-Leu-Gly-thioester-Leu-Leu-Gly-OEt; type: biochemical
T1 construct: SCD (stromelysin-1 catalytic domain); made in house; host or cells: Escherichia coli
T1 sequence (P08254 100-272 limits assumed): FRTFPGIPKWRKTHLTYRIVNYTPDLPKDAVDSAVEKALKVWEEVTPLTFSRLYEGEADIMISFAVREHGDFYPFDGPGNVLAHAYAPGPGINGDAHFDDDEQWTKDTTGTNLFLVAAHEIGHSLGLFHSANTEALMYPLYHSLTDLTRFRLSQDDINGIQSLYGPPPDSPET
Protocol: (§1) Experiments were carried out with the catalytic domains of the proteinases. […] IC50 values were determined using a thiopeptolide substrate, Ac-Pro-Leu-Gly-thioester-Leu-Leu-Gly-OEt (Ye Q. -Z., Johnson L. L., Hupe D. J., and Baragi V., "Purification and Characterization of the Human Stromelysin Catalytic Domain Expressed in Escherichia coli", Biochemistry, 1992;31:11231-11235).

[4] = biological target: GCD (recombinant gelatinase A catalytic domain); assay: IC50 versus GCD with thiopeptolide substrate Ac-Pro-Leu-Gly-thioester-Leu-Leu-Gly-OEt; type: biochemical
Protocol: as §1

IC50 [3] | IC50 [4] | Molecule | formation of collagen fragments and proteoglycan fragments [1] | tumor burden and survival [2]
– | – | TIMP-1: natural endogenous inhibitors of MMPs (TIMPs) | prevented the formation of collagen fragments, but not proteoglycan fragments | –
– | – | CNC(=O)[C@H](Cc1ccccc1)NC(=O)[C@H](CC(C)C)[C@H](CSc1cccs1)C(=O)NO [BB-94] | – | decreased the tumor burden and prolonged the survival
> 100 µM | 93.6 µM | O=C(CC(F)(F)C(=O)O)c1ccc2oc3ccccc3c2c1 [Example 2, 4-Dibenzofuran-2-yl-2,2-difluoro-4-oxo-butric acid] | – | –
24 µM | 1.95 µM | O=C(O)CC(F)(F)C(=O)c1ccc2oc3ccccc3c2c1 [Example 1, 4-Dibenzofuran-2-yl-3,3-difluoro-4-oxo-butyric acid] | – | –
